Data: US7902341B2, “Methods and compositions for modulating somatolactogenic functions” (Trustees of the University of Pennsylvania, priority 1999, dated 2011)

Legend:
Nb2 cells = assay: Nb2 cell proliferation (3H-thymidine) to assess CypB modulation of somatolactogenic action; assay type: cell-based, rat; conditions: for enhancement of PRL-driven growth compared to cultures that received only PRL: Nb2 cells, added to PRL-containing medium, most prominent at 5-10 mM CypB and 50 pM PRL
Procedure: (§1) The effect of exogenous CypB on PRL-driven proliferation was examined with the rat Nb2 T-cell and the human T47D breast cancer line. […] This dose-dependent biphasic effect was most prominent at physiologic concentrations (5-10 mM) of CypB and PRL (50 pM) found in human serum. […] To determine the effect of CypB on cellular growth driven by the larger family of cytokines, to which PRL belongs, proliferation driven by interleukin-2 (IL-2), IL-3 and GH was examined.
Nb2-cells (5×10^4; PRL-dependent, rat T-lymphoma) were plated in each well of 96 well plates in a defined DMEM-serum free medium (0.1 mM 2-mercaptoethanol, 1% penicillin/streptomycin, and 1% ITS+(Calbiochem)). Cells were rested for 24 hours at 37° C. in this defined medium in the absence of PRL before the addition of 5-500 pM PRL (either as human pituitary isolated PRL, National Hormone and Pituitary Program, NIDDK; recombinant human PRL from E. coli, Genzyme; or recombinant human PRL from Drosophila S2 cells) alone or premixed with 1-2000 fold excess of purified CypB. Parallel studies were performed using human pituitary-derived GH (National Hormone and Pituitary Program, NIDDK). Cultures were incubated for 48 hours at 37° C. and proliferation was evaluated by the addition of 0.5 μCi of ^3H-thymidine for four hours followed by harvesting and scintillography. When stimulated with PRL alone, Nb2 cells yield sigmoid shaped growth curves that plateau at approximately 2 ng PRL/ml.

PRL = target: T1, PRL (Homo sapiens, UniProt P01236); assay: Detection of PRL-CypB complexes by co-immunoprecipitation; assay type: binding; conditions: for interaction with PRL (co-immunoprecipitation): purified epitope-tagged recombinant proteins admixed, reducing agent or divalent cation
T1 construct: Full length PRL cDNA was generated by PCR; made in house; host or cells: Drosophila S2 cells
T1 sequence (P01236 29-227): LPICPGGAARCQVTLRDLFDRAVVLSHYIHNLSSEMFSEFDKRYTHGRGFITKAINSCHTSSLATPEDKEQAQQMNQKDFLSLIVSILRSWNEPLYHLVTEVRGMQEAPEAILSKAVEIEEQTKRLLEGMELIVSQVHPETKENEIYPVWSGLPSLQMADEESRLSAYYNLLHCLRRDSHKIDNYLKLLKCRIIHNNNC
Procedure: Complexes were immunoprecipitated by the addition of 1 μg of polyclonal anti-histidine antibody (#sc-803, Santa Cruz Biotech) for one hour followed by roatation for one hour with 50 μl Protein-A beads. Precipiated complexes were separated by 15% SDS-PAGE and transferred to PVDF. Immunoblots were blocked for one hour at room temperature with 5% milk in PBS containing 1% TWEEN-20 (PBST) and immunoblotted with a monoclonal anti-myc antibody (1:1000, mAb 9E10) for one hour. Immunoblots were analyzed by incubation with an anti-mouse secondary antibody conjugated to horseradish peroxidase (1:2000, Boehringer Mannheim) for one hour followed by incubation with ECL Plus (Amersham Pharmacia Biotech) amnd exposure to Biomax film (Kodak).

[1] = system: IL-2- and IL-3-driven proliferation; assay: IL-2- and IL-3-driven proliferation with added CypB; assay type: cell-based; conditions: varying concentration of CypB
Procedure: as §1

[2] = system: T47D human breast cancer cells; assay: Nuclear retrotranslocation of PRL by indirect anti-PRL immunofluorescence; assay type: cell-based; conditions: defined T47D culture medium containing the co-mitogen EGF
Procedure: Experiments were performed to examine the ability of CypB to enhance nuclear retrotranslocation of PRL, and thereby PRL-driven proliferation.
The role of this sequence in the CypB-mediated retrotranslocation of PRL, and its associated enhancement of growth was tested by mutagenic approaches. The putative nuclear localization sequence of CypB was deleted in the mutant CypB-NT.

Substance | enhancement of PRL-driven growth compared to cultures that received only PRL (Nb2 cells) | interaction with PRL (co-immunoprecipitation) (PRL) | effect on IL-2-driven proliferation [1] | effect on IL-3-driven proliferation [1] | enhancement of PRL-induced proliferation (Nb2 cells; cell line not stated) | enhancement of GH-driven proliferation compared to GH alone (Nb2 cells; physiological concentrations of CypB, human pituitary-derived GH) | interaction with PRL in human serum (co-immunoprecipitation; binding to sepharose-conjugated recombinant CypB) (PRL; human serum) | T47D nuclei exhibiting anti-PRL immunofluorescence [2]
CypA: recombinant form of the highly homologous cyclophilin family member [reference compound] | did not result in any potentiation | failed to interact with PRL | – | – | – | – | – | –
CypB: cyclophilin family cis-trans peptidyl prolyl isomerase; recombinant His-tagged wild-type protein (SEQ ID NO: 1) | eight-fold | direct interaction of CypB with PRL | Neither IL-2- nor IL-3-driven proliferation was altered | Neither IL-2- nor IL-3-driven proliferation was altered | failed to enhance PRL-induced proliferation | forty-fold | direct co-immunoprecipitation of PRL with CypB from human serum | 95-100%
